Data taken from patent publication US9056874B2, “Complement pathway modulators and uses thereof” (NOVARTIS AG, priority 2012, dated 2015).

These compounds were tested against factor B (Homo sapiens, UniProt P00751) (assay: factor B inhibition assay of Biological Example 1). Settings: IC50 (nM), assay of Biological Example 1 (Table 1).
Sequence of factor B (P00751 260-764 limits assumed): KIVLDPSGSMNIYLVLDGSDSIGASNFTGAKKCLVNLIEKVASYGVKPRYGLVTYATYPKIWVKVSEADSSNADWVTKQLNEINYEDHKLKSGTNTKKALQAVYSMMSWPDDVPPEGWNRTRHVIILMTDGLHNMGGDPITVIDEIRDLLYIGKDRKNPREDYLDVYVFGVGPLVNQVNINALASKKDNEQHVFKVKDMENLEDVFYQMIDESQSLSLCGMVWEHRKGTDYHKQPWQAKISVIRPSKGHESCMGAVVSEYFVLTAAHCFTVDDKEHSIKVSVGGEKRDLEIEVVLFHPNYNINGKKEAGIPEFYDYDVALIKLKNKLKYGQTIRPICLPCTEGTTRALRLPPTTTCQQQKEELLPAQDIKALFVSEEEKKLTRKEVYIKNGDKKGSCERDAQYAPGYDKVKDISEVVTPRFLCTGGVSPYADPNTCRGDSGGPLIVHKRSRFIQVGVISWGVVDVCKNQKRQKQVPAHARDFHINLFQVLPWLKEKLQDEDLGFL
Sequence of factor B (Q91132 23-649 partner limits assumed): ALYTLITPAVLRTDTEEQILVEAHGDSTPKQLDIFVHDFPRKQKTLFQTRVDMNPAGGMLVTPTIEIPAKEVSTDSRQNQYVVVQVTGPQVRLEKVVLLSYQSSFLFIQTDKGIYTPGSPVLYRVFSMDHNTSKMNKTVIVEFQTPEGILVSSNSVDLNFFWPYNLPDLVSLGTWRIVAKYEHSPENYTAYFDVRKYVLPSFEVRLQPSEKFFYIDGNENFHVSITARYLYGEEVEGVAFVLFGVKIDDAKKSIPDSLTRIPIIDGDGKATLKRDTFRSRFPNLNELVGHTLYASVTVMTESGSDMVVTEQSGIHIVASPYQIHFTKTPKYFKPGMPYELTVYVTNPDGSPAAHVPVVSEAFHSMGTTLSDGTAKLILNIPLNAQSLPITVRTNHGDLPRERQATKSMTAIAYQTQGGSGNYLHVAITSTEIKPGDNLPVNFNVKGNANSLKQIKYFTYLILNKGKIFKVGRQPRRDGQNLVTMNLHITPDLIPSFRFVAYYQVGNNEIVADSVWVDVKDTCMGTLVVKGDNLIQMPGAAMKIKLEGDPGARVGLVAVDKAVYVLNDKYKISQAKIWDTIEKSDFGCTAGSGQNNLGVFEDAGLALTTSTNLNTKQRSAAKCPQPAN
Sequence of factor B (Q91132 733-984 partner limits assumed): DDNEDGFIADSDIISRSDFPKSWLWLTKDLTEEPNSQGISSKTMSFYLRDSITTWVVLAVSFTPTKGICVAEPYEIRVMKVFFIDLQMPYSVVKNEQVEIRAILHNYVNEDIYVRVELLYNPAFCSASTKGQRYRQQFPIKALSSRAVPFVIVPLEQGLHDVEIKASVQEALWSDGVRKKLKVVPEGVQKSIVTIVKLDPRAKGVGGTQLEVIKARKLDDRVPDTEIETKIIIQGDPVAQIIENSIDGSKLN
Sequence of factor B (Q91132 1264-1642 partner limits assumed): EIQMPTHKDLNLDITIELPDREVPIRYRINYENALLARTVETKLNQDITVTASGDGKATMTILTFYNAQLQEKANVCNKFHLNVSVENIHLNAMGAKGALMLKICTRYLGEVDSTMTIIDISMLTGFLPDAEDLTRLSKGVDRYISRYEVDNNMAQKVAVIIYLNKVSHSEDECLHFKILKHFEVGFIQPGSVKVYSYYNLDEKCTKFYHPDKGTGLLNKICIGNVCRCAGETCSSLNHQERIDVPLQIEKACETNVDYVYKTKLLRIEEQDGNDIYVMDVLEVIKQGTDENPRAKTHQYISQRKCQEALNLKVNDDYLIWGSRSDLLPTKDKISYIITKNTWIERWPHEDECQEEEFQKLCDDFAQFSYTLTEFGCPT
Format: biochemical
Design: CVF-Bb complex prepared from purified cobra venom factor (1 μM), recombinant human complement factor B; made in house; host or cells: drosophila cells (factor B); E. coli (factor D used to form the complex)
Cc1cc(C(C)C)c(C(C)(O)c2nc3cc(C#N)ccc3[nH]2)c2cc[nH]c12 (single isomer, unassigned; (+)) [79-B b) (+), (+)-2-(1-hydroxy-1-(5-isopropyl-7-methyl-1H-indol-4-yl)ethyl)-1H-benzo[d]imidazole-5-carbonitrile] showed an IC50 of 1070 nM.
Cc1cc(C)c2[nH]cc(-c3cnn(C)c3)c2c1C(O)c1nc2cc(C#N)ccc2[nH]1 (single isomer, unassigned) [119 b) (tr = 1.54 min), (+)- or (−)-2-((5,7-dimethyl-3-(1-methyl-1H-pyrazol-4-yl)-1H-indol-4-yl)(hydroxy)methyl)-1H-benzo[d]imidazole-5-carbonitrile] gave an IC50 of 130 nM.
CCc1cc(C)c2[nH]ccc2c1C(C)(OC)c1nc2cc(C#N)ccc2[nH]1 (single isomer, unassigned; (-)) [84-C b) (−), (−)-2-(1-(5-ethyl-7-methyl-1H-indol-4-yl)-1-methoxyethyl)-1H-benzo[d]imidazole-5-carbonitrile] gave an IC50 of 10 nM.
In the case of CCOc1cc(C)c2[nH]ccc2c1C(O)c1nc2cc(C#N)ccc2[nH]1 (single isomer, unassigned; (-)) [24-C b) (−), (−)-2-((5-ethoxy-7-methyl-1H-indol-4-yl)(hydroxy)methyl)-1H-benzo[d]imidazole-5-carbonitrile], the IC50 is reported as 600 nM.
COc1cc(C)c2[nH]ccc2c1C(O)(c1nc2cc(C#N)ccc2[nH]1)C(F)(F)F (single isomer, unassigned; (-)) [33-B b) (−), (−)-2-(2,2,2-trifluoro-1-hydroxy-1-(5-methoxy-7-methyl-1H-indol-4-yl)ethyl)-1H-benzo[d]imidazole-5-carbonitrile] gave an IC50 of 50 nM.
In the case of Cc1cc(C)c2[nH]ccc2c1C(C)(N)c1nc2cc(C#N)ccc2[nH]1 (racemic) [101-E b) (−), (−)-2-(1-amino-1-(5,7-dimethyl-1H-indol-4-yl)ethyl)benzo[d]imidazole-5-carbonitrile], the IC50 is reported as 50 nM.
For CCc1cc(C)c2[nH]ccc2c1C(O)(c1nc2cc(C#N)ccc2[nH]1)C(F)(F)F (single isomer, unassigned; (+)) [80-C b) (+), (+)-2-(1-(5-ethyl-7-methyl-1H-indol-4-yl)-2,2,2-trifluoro-1-hydroxyethyl)-1H-benzo[d]imidazole-5-carbonitrile], the IC50 was 380 nM.
Work on Cc1cc(C2CC2)c(C(C)(O)c2nc3cc(C#N)ccc3[nH]2)c2cc[nH]c12 (single isomer, unassigned; (+)) [79-C b) (+), (+)-2-(1-(5-cyclopropyl-7-methyl-1H-indol-4-yl)-1-hydroxyethyl)-1H-benzo[d]imidazole-5-carbonitrile] yielded an IC50 of 8 nM.
With CCOc1cc(C)c2[nH]ccc2c1C(O)c1nc2cc(C#N)ccc2[nH]1 (single isomer, unassigned; (+)) [24-C b) (+), (+)-2-((5-ethoxy-7-methyl-1H-indol-4-yl)(hydroxy)methyl)-1H-benzo[d]imidazole-5-carbonitrile] the IC50 was 6050 nM.
In the case of Cc1cc(C)c2[nH]ccc2c1C(O)(c1ccccc1)c1nc2cc(C#N)ccc2[nH]1 (centres unmarked) [Example 79-I], the IC50 is reported as 660 nM.
In the case of C=C(c1nc2cc(C#N)ccc2[nH]1)c1c(OC)cc(C)c2[nH]ccc12 [Example 115, 2-(1-(5-Methoxy-7-methyl-1H-indol-4-yl)vinyl)-1H-benzo[d]imidazole-5-carbonitrile], the IC50 is reported as 30 nM.
In the case of COC(C)(c1nc2cc(C#N)ccc2[nH]1)c1c(OC(F)F)cc(C)c2[nH]ccc12 (single isomer, unassigned; (+)) [8-B b) (+), (+)-2-(1-(5-(difluoromethoxy)-7-methyl-1H-indol-4-yl)-1-methoxyethyl)-1H-benzo[d]imidazole-5-carbonitrile], the IC50 is reported as 10 nM.
For CNC(c1nc2cc(C#N)ccc2[nH]1)(c1c(OC)cc(C)c2[nH]ccc12)C(F)(F)F (single isomer, unassigned; (+)) [38-B b) (+), (+)-2-(2,2,2-trifluoro-1-(5-methoxy-7-methyl-1H-indol-4-yl)-1-(methylamino)ethyl)-1H-benzo[d]imidazole-5-carbonitrile], the IC50 was 140 nM.
Cc1cc(C)c2[nH]ccc2c1C(N)c1nc2ccc(C#N)cc2[nH]1 (single isomer, unassigned; (-)) [95-B b) (−), (−)-2-(amino(5,7-dimethyl-1H-indol-4-yl)methyl)benzo[d]imidazole-5-carbonitrile] showed an IC50 of 480 nM.
Compound CCc1cc(C)c2[nH]ccc2c1C(C)(O)c1nc2cc(C#N)ccc2[nH]1 (single isomer, unassigned; (-)) [77-C b) (−), (−)-2-(1-(5-ethyl-7-methyl-1H-indol-4-yl)-1-hydroxyethyl)-1H-benzo[d]imidazole-5-carbonitrile] has an IC50 of 20 nM.
In the case of CNC(c1nc2cc(C#N)ccc2[nH]1)(c1c(S(C)(=O)=O)cc(C)c2[nH]ccc12)C(F)(F)F (single isomer, unassigned; (-)) [16-B b) (−), (−)-2-(2,2,2-trifluoro-1-(7-methyl-5-(methylsulfonyl)-1H-indol-4-yl)-1-(methylamino)ethyl)-1H-benzo[d]imidazole-5-carbonitrile], the IC50 is reported as 180 nM.
CCc1cc(C)c2[nH]cc(C(F)(F)F)c2c1C(C)(O)c1nc2cc(C#N)ccc2[nH]1 (single isomer, unassigned; (+)) [Example 88, (+)-2-(1-(5-Ethyl-7-methyl-3-(trifluoromethyl)-1H-indol-4-yl)-1-hydroxyethyl)-1H-benzo[d]imidazole-5-carbonitrile] was tested, and the IC50 was 57900 nM.
In the case of Cc1cc(OC(F)F)c(C(C)(N)c2nc3cc(C#N)ccc3[nH]2)c2cc[nH]c12 (single isomer, unassigned; (+)) [5-E b) (+), (+)-2-(1-amino-1-(5-(difluoromethoxy)-7-methyl-1H-indol-4-yl)ethyl)-1H-benzo[d]imidazole-5-carbonitrile], the IC50 is reported as 420 nM.
In the case of Cc1cc(C)c2[nH]ccc2c1C(NS(C)(=O)=O)c1nc2cc(C#N)ccc2[nH]1 (racemic) [Example 99-B, (±)-N-((5-cyano-1H-benzo[d]imidazol-2-yl)(5,7-dimethyl-1H-indol-4-yl)methyl)methanesulfonamide], the IC50 is reported as 750 nM.
Compound CNC(=O)c1cc(C)c2[nH]ccc2c1C(O)(c1nc2cc(C#N)ccc2[nH]1)C(F)(F)F (racemic) [Example 82, (±)-4-(1-(5-cyano-1H-benzo[d]imidazol-2-yl)-2,2,2-trifluoro-1-hydroxyethyl)-N,7-dimethyl-1H-indole-5-carboxamide] has an IC50 of 71900 nM.
CCOCc1cc(C)c2[nH]ccc2c1C(O)c1nc2cc(C#N)ccc2[nH]1 (single isomer, unassigned; (-)) [66-D b) (−), (−)-2-((5-(ethoxymethyl)-7-methyl-1H-indol-4-yl)(hydroxy)methyl)-1H-benzo[d]imidazole-5-carbonitrile] was tested, and the IC50 was 5110 nM.
Compound CCc1cc(C)c2[nH]cc3c2c1C(O)(c1nc2cc(C#N)ccc2[nH]1)CC3 (single isomer, unassigned) [94 b) (tr = 4.5 min), (+) or (−)-2-(6-ethyl-5-hydroxy-8-methyl-1,3,4,5-tetrahydrobenzo[cd]indol-5-yl)-1H-benzo[d]imidazole-5-carbonitrile] has an IC50 of 400 nM.
Cc1cc(Br)c(C(N)(c2nc3cc(C#N)ccc3[nH]2)C(F)(F)F)c2cc[nH]c12 (single isomer, unassigned; (+)) [105-B b) (+), (+)-2-(1-amino-1-(5-bromo-7-methyl-1H-indol-4-yl)-2,2,2-trifluoroethyl)-1H-benzo[d]imidazole-5-carbonitrile] showed an IC50 of 90 nM.
Compound Cc1cc(C(C)C)c(C(N)c2nc3cc(C#N)ccc3[nH]2)c2cc[nH]c12 (single isomer, unassigned) [97 b) (tr = 10.5 min), (+) or (−)-2-(amino(5-isopropyl-7-methyl-1H-indol-4-yl)methyl)-1H-benzo[d]imidazole-5-carbonitrile] has an IC50 of 3810 nM.
Cc1cc(OCC(=O)O)c(C(C)(O)c2nc3cc(C#N)ccc3[nH]2)c2cc[nH]c12 (racemic) [Example 32-B, (±)-2-((4-(1-(5-Cyano-1H-benzo[d]imidazol-2-yl)-1-hydroxyethyl)-7-methyl-1H-indol-5-yl)oxy)acetic acid] was tested, and the IC50 was 1410 nM.
COc1cc(C)c2[nH]ccc2c1C(OC)c1nc2cc(C#N)ccc2[nH]1 (racemic) [30-B b) (+), (+)-2-(methoxy(5-methoxy-7-methyl-1H-indol-4-yl)methyl)-1H-benzo[d]imidazole-5-carbonitrile] showed an IC50 of 220 nM.
CNC(c1nc2cc(C#N)ccc2[nH]1)c1c(OC(F)F)cc(C)c2[nH]ccc12 (racemic) [Example 4, (±)-2-((5-(Difluoromethoxy)-7-methyl-1H-indol-4-yl)(methylamino)methyl)-1H-benzo[d]imidazole-5-carbonitrile] showed an IC50 of 570 nM.
Work on Cc1cc(C(C)C)c(C(C)(N)c2nc3cc(C#N)ccc3[nH]2)c2cc[nH]c12 (centres unmarked) [102-E a)] yielded an IC50 of 60 nM.
Compound CCc1cc(C)c2[nH]ccc2c1C(NC)(c1nc2cc(C#N)ccc2[nH]1)C(F)(F)F (single isomer, unassigned; (-)) [107-B b) (−), (−)-2-(1-(5-ethyl-7-methyl-1H-indol-4-yl)-2,2,2-trifluoro-1-(methylamino)ethyl)-1H-benzo[d]imidazole-5-carbonitrile] has an IC50 of 3 nM.
Cc1cc(C2CC2)c(C(C)(O)c2nc3cc(C#N)ccc3[nH]2)c2cc[nH]c12 (single isomer, unassigned; (-)) [79-C b) (−), (−)-2-(1-(5-cyclopropyl-7-methyl-1H-indol-4-yl)-1-hydroxyethyl)-1H-benzo[d]imidazole-5-carbonitrile] showed an IC50 of 6 nM.
Cc1cc(OC(C)C)c(Cc2nc3cc(C#N)ccc3[nH]2)c2cc[nH]c12 [Example 20-E] showed an IC50 of 670 nM.
For Cc1cc(CC(C)C)c(C(C)(O)c2nc3cc(C#N)ccc3[nH]2)c2cc[nH]c12 (single isomer, unassigned; (-)) [79-D b) (−), (−)-2-(1-hydroxy-1-(5-isobutyl-7-methyl-1H-indol-4-yl)ethyl)-1H-benzo[d]imidazole-5-carbonitrile], the IC50 was 310 nM.
